Values of other authors, collected in publication PMC11071479 (bioRxiv, 2024).

Molecular target: T1, MCT4 (Homo sapiens, UniProt O15427)
T1 sequence (O15427 2-465): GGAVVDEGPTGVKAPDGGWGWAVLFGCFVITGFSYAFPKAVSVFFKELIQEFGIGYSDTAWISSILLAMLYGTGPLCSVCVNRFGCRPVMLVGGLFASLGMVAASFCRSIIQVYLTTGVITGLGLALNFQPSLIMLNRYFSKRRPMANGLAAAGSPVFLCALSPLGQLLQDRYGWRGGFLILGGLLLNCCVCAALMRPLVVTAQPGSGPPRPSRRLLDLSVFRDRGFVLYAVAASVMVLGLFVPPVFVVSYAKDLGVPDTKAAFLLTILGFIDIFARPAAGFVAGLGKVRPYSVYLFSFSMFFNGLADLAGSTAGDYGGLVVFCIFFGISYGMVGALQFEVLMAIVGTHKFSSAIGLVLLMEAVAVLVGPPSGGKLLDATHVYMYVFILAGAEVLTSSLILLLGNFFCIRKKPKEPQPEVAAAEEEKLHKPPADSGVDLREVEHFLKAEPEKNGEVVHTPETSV
Assay: MCT4 inhibition IC50 stated without citation
Type: cell-based

- IC50: ~2 nM
Substance: VB253
